Patent publication US20100087649A1, “QUINOLINONE DERIVATIVES” (priority 2006, published 2010)

How the values were obtained:
[1] = system: wild-type HIV-IIIB strain; assay: Antiviral analysis EGFP: anti-HIV activity in MT4 LTR-EGFP cells; format: cell-based, HIV-1; conditions: fluorescence of HIV-infected cells reduced by 50%, three days after infection
Procedure: The compounds of the present invention were tested for anti-viral activity in a cellular assay, which was performed according to the following procedure.
The human T-cell line MT4 is engineered with Green Fluorescent Protein (GFP) and an HIV-specific promoter, HIV-1 long terminal repeat (LTR). This cell line is designated MT4 LTR-EGFP, and can be used for the in vitro evaluation of anti-HIV activity of investigational compounds. In HIV-1 infected cells, the Tat protein is produced which upregulates the LTR promotor and finally leads to stimulation of the GFP reporter production, allowing measuring ongoing HIV-infection fluorometrically.
(§1) Effective concentration values such as 50% effective concentration (EC50) can be determined and are usually expressed in μM. An EC50 value is defined as the concentration of test compound that reduces the fluorescence of HIV-infected cells by 50%. The 50% cytotoxic concentration (CC50 in μM) is defined as the concentration of test compound that reduces fluorescence of the mock-infected cells by 50%. The ratio of CC50 to EC50 is defined as the selectivity index (SI) and is an indication of the selectivity of the anti-HIV activity of the inhibitor. The ultimate monitoring of HIV-1 infection and cytotoxicity is done using a scanning microscope. Image analysis allows very sensitive detection of viral infection. Measurements are done before cell necrosis, which usually takes place about five days after infection, in particular measurements are performed three days after infection.
The following Table 5 lists EC50 values, expressed in micromole/liter, against wild-type HIV-IIIB strain, for a selected number of compounds of the invention.

[2] = system: MT4 CMV-EGFP cells; assay: Cytotoxicity in mock-infected MT4 CMV-EGFP cells; format: cell-based, human; conditions: fluorescence reduced by 50%
Excerpt: Analogously, MT4 cells are engineered with GFP and the constitutional cytomegalovirus (CMV) promotor. This cell line is designated MT4 CMV-EGFP, and can be used for the in vitro evaluation of cytotoxicity of investigational compounds. In this cell line, GFP levels are comparably to those of infected MT4 LTR-EGFP cells. Cytotoxic investigational compounds reduce GFP levels of mock-infected MT4 CMV-EGFP cells.
as §1

| SMILES | EC50 [1] [µM] | CC50 [2] [µM] |
| --- | --- | --- |
| N#Cc1ccc(-n2c(=O)c(C#N)cc3ccccc32)cc1 [compound 2] | > 32 | > 32 |
| N#Cc1cc2ccccc2n(-c2ccc([N+](=O)[O-])cn2)c1=O [compound 3] | 4.8 | > 32 |
| N#Cc1cc2ccccc2n(-c2ccc(Cl)nc2)c1=O [compound 4] | > 32 | > 32 |
| Cc1ccc(-n2c(=O)c(C#N)cc3ccccc32)cn1 [compound 5] | > 32 | > 32 |
| N#Cc1cc2cc3c(cc2n(-c2ccc([N+](=O)[O-])cc2)c1=O)OCO3 [compound 6] | 1.12 | > 100 |
| N#Cc1cc2ccc(NCCN3CCCC3)cc2n(-c2ccc([N+](=O)[O-])cc2)c1=O [compound 12] | 1.22 | > 100 |
| N#Cc1cc2ccc(NCCN3CCOCC3)cc2n(-c2ccc([N+](=O)[O-])cc2)c1=O [compound 14] | 4.08 | > 32 |
| CNCCNc1ccc2cc(C#N)c(=O)n(-c3ccc([N+](=O)[O-])cc3)c2c1 [compound 15] | 1.37 | > 32 |
| N#Cc1cc2ccc(NCCN)cc2n(-c2ccc([N+](=O)[O-])cc2)c1=O [compound 16] | 1.55 | > 32 |
| COCCNc1ccc2cc(C#N)c(=O)n(-c3ccc([N+](=O)[O-])cc3)c2c1 [compound 17] | > 32 | > 32 |
| N#Cc1cc2ccc(NCC3CCNC3)cc2n(-c2ccc([N+](=O)[O-])cc2)c1=O (stereo not shown) [compound 18] | 4.43 | > 32 |
| N#Cc1cc2ccc(NCCCN)cc2n(-c2ccc([N+](=O)[O-])cc2)c1=O [compound 19] | 0.91 | 30.6 |
| CN(C)CCCNc1ccc2cc(C#N)c(=O)n(-c3ccc([N+](=O)[O-])cc3)c2c1 [compound 20] | 0.3 | 49 |
| N#Cc1cc2ccc(NCCCN3CCCC3)cc2n(-c2ccc([N+](=O)[O-])cc2)c1=O [compound 21] | 0.21 | 69.5 |
| CNCCCNc1ccc2cc(C#N)c(=O)n(-c3ccc([N+](=O)[O-])cc3)c2c1 [compound 22] | 0.36 | 88.7 |
| N#Cc1cc2ccc(NCc3cccnc3)cc2n(-c2ccc([N+](=O)[O-])cc2)c1=O [compound 23] | > 32 | > 32 |
| N#Cc1cc2ccc(-c3ccncc3)cc2n(-c2ccc([N+](=O)[O-])cc2)c1=O [compound 29] | 0.92 | > 32 |
| N#Cc1cc2ccc(-c3cccc(CN)c3)cc2n(-c2ccc([N+](=O)[O-])cc2)c1=O [compound 30] | 0.63 | 24.7 |
| N#Cc1cc2ccc(-c3cncnc3)cc2n(-c2ccc([N+](=O)[O-])cc2)c1=O [compound 31] | 7.9 | > 100 |
| N#Cc1cc2ccc(-c3cccc(O)c3)cc2n(-c2ccc([N+](=O)[O-])cc2)c1=O [compound 32] | 0.65 | > 100 |
| N#Cc1cc2ccc(-c3cccnc3)cc2n(-c2ccc([N+](=O)[O-])cc2)c1=O [compound 33] | 0.83 | > 100 |
| N#Cc1cc2ccc(-c3ccc[nH]3)cc2n(-c2ccc([N+](=O)[O-])cc2)c1=O [compound 34] | 0.25 | 32.3 |
| N#Cc1cc2ccc(-c3ccc(C(N)=O)cc3)cc2n(-c2ccc([N+](=O)[O-])cc2)c1=O [compound 35] | 1.71 | 22.6 |
| N#Cc1cc2ccc(-c3cccs3)cc2n(-c2ccc([N+](=O)[O-])cc2)c1=O [compound 36] | 0.76 | > 100 |

| SMILES | EC50 [1] [µM] | CC50 [2] [µM] |
| --- | --- | --- |
| N#Cc1cc2ccc(-c3cccc(N)c3)cc2n(-c2ccc([N+](=O)[O-])cc2)c1=O [compound 37] | 0.42 | > 100 |
| N#Cc1cc2ccc(-c3cccc(CO)c3)cc2n(-c2ccc([N+](=O)[O-])cc2)c1=O [compound 38] | 0.61 | 18.6 |
| CC(=O)Nc1cccc(-c2ccc3cc(C#N)c(=O)n(-c4ccc([N+](=O)[O-])cc4)c3c2)c1 [compound 39] | 51.3 | > 100 |
| CN(C)C(=O)c1ccc(-c2ccc3cc(C#N)c(=O)n(-c4ccc([N+](=O)[O-])cc4)c3c2)cc1 [compound 40] | 0.95 | > 100 |
| N#Cc1cc2ccc(-c3ccoc3)cc2n(-c2ccc([N+](=O)[O-])cc2)c1=O [compound 41] | 0.28 | 38.1 |
| N#Cc1cc2ccc(-c3cccc(C(N)=O)c3)cc2n(-c2ccc([N+](=O)[O-])cc2)c1=O [compound 42] | 2.85 | > 100 |
| CC(=O)NCc1cccc(-c2ccc3cc(C#N)c(=O)n(-c4ccc([N+](=O)[O-])cc4)c3c2)c1 [compound 43] | 0.93 | > 100 |
| N#Cc1cc2ccc(-c3cc[nH]c3)cc2n(-c2ccc([N+](=O)[O-])cc2)c1=O [compound 44] | 0.19 | > 100 |
| CN(C)Cc1cccc(-c2ccc3cc(C#N)c(=O)n(-c4ccc([N+](=O)[O-])cc4)c3c2)c1 [compound 45] | 0.14 | 17.1 |
| N#Cc1cc2ccc(-c3cc[nH]n3)cc2n(-c2ccc([N+](=O)[O-])cc2)c1=O [compound 46] | 0.16 | > 100 |
| N#Cc1cc2ccc(-c3ccc(C(=O)O)s3)cc2n(-c2ccc([N+](=O)[O-])cc2)c1=O [compound 47] | > 100 | > 100 |
| N#Cc1cc2ccc(-c3cn[nH]c3)cc2n(-c2ccc([N+](=O)[O-])cc2)c1=O [compound 48] | 0.71 | > 100 |
| N#Cc1cc2ccc(-c3ccc(C(=O)O)cc3)cc2n(-c2ccc([N+](=O)[O-])cc2)c1=O [compound 49] | > 100 | > 100 |
| CS(=O)(=O)NCc1cccc(-c2ccc3cc(C#N)c(=O)n(-c4ccc([N+](=O)[O-])cc4)c3c2)c1 [compound 50] | 3 | 11.8 |
| N#Cc1cc2ccc(OCCN3CCCC3)cc2n(-c2ccc([N+](=O)[O-])cc2)c1=O [compound 52] | 2.45 | > 32 |
| N#Cc1cc2ccc(OCCN)cc2n(-c2ccc([N+](=O)[O-])cc2)c1=O [compound 53] | 1.14 | > 100 |
| N#Cc1cc2ccc(OCCN3CCOCC3)cc2n(-c2ccc([N+](=O)[O-])cc2)c1=O [compound 55] | 13.5 | > 32 |
| N#Cc1cc2ccc(OCCCN3CCOCC3)cc2n(-c2ccc([N+](=O)[O-])cc2)c1=O [compound 56] | 1.4 | > 32 |
| N#Cc1cc2ccc(OCCCN)cc2n(-c2ccc([N+](=O)[O-])cc2)c1=O [compound 57] | 1.06 | 49.6 |
| CCN(CC)CCOc1ccc2cc(C#N)c(=O)n(-c3ccc([N+](=O)[O-])cc3)c2c1 [compound 59] | 12.9 | > 32 |
| N#Cc1cc2ccc(OCCCCN)cc2n(-c2ccc([N+](=O)[O-])cc2)c1=O [compound 60] | 3.76 | > 32 |
| N#Cc1cc2ccc(OCCN3CCNCC3)cc2n(-c2ccc([N+](=O)[O-])cc2)c1=O [compound 61] | 3.65 | > 32 |
| N#Cc1cc2ccc(-c3ncco3)cc2n(-c2ccc([N+](=O)[O-])cc2)c1=O [compound 79] | 0.12 | – |
| Cc1ccc(-n2c(=O)c(C#N)cc3ccc(-c4cscn4)cc32)cc1C#N [compound 160] | 0.33 | – |
